Columns and labels:
diet-induced catabolism = settings: orally active; cited from earlier work
[1] = test system: serum insulin-like growth factor-1; quadriceps muscle; settings: canines during remobilization; cited from earlier work
[2] = test system: exercise-induced growth hormone secretion; experiment: Phase I double-blind, placebo-controlled, multiple dose evaluation: effect on exercise-induced growth hormone secretion (exercise bicycle); format: in vivo, human; settings: for growth hormone AUC, End of Treatment, Mean: Day 7, calorically restricted obese subjects; for growth hormone AUC, End of Treatment, Mean / growth hormone AUC, Change, Mean: AUC up to 150 minutes post exercise; for growth hormone AUC, Change, Mean: Day 7 versus screening visit
Description: Phase I Double-Blind, Placebo-Controlled, Multiple Dose Evaluation of Test Compound in Calorically Restricted, Obese Men and Women
A total of 48 obese subjects, without significant other medical problems and a negative exercise tolerance test, were recruited for this study and placed on a caloric-restricted diet. Subjects had been randomized to either placebo, 3 mg po tid, 6 mg po tid or 10 mg po qam of the test compound, 2-amino-N-[2-(3a-(R)-benzyl-2-methyl-3-oxo-2,3,3a,4,6,7-hexahydro-pyrazolo[4,3-c]pyridin-5-yl)-1-(R)-benzyloxymethyl-2-oxo-ethyl]-isobutyramide, L-tartrate for a total of seven days.
One of the objectives of this study was to examine the effect of the test compound on exercise-induced growth hormone secretion. The testing was conducted on an exercise bicycle.
One of the efficacy measures of this study was the area under the growth hormone secretory response curve over time (AUC). The above table summarizes the growth hormone AUC values at the screening visit (“Before Treatment”) and at Day 7 (“End of Treatment”) for subjects, who completed exercise at both visits. Also, the AUC values for these subjects were calculated for up to 150 minutes post exercise. The “p-value” in the above table, which is associated with each active treatment group, is derived from comparing each active treatment group with the placebo group, using the two-sample Wilcoxon test.

SMILES | diet-induced catabolism (diet-induced catabolism) | serum insulin-like growth factor-1 levels [1] | size and strength of the quadriceps muscle [1] | growth hormone AUC, End of Treatment, Mean ([2]; 3 mg p.o. tid for seven days) | growth hormone AUC, Change, Mean ([2]; 3 mg p.o. tid for seven days) | growth hormone AUC, End of Treatment, Mean ([2]; 6 mg p.o. tid for seven days) | growth hormone AUC, Change, Mean ([2]; 6 mg p.o. tid for seven days) | growth hormone AUC, End of Treatment, Mean ([2]; 10 mg p.o. qam for seven days) | growth hormone AUC, Change, Mean ([2]; 10 mg p.o. qam for seven days) | effect on exercise-induced growth hormone secretion ([2]; overall finding of the study, versus placebo)
CC(C)(N)C(=O)N[C@H](COCc1ccccc1)C(=O)N1CCC2(CC1)CN(S(C)(=O)=O)c1ccccc12 [MK-677] | reverses diet-induced catabolism | elevated levels of serum insulin-like growth factor-1 | increased the size and strength of the quadriceps muscle |  |  |  |  |  |  | 
CN1N=C2CCN(C(=O)[C@@H](COCc3ccccc3)NC(=O)C(C)(C)N)C[C@@]2(Cc2ccccc2)C1=O.O=C(O)C(O)C(O)C(=O)O [test compound, 2-amino-N-[2-(3a-(R)-benzyl-2-methyl-3-oxo-2,3,3a,4,6,7-hexahydro-pyrazolo[4,3-c]pyridin-5-yl)-1-(R)-benzyloxymethyl-2-oxo-ethyl]-isobutyramide, L-tartrate] |  |  |  | 384 | 298 | 395 | 250 | 927 | 684 | augmented exercise-induced growth hormone secretion

Source: patent US20020151551A1, “Use of growth hormone secretagogues in conjunction with physical exercise cross reference to related application” (priority 2000, published 2002)
